Values of other authors, collected in article PMC3320885 (PLoS ONE, 2012).

Columns and labels:
[1] = system: BCR-Abl T315I mutant
[2] = system: BCR-Abl V299L mutant
[3] = system: receptor tyrosine kinase Kit; set-up: method as in PMID 12543790, PMID 17114238
[4] = system: receptor tyrosine kinase PDGFR; set-up: method as in PMID 12543790, PMID 17114238
[5] = system: BCR-Abl Q252H mutant
[6] = system: BCR-Abl Y253F mutant

## COc1cc(Nc2c(C#N)cnc3cc(OCCCN4CCN(C)CC4)c(OC)cc23)c(Cl)cc1Cl [bosutinib]
[1]
  effect of T315I mutation: confer resistance
[2]
  effect of V299L mutation: confer resistance
[3]
  activity against Kit: devoid of activity
[4]
  activity against PDGFR: devoid of activity
[5]
  effect of Q252H mutation on inhibition: not affected
[6]
  effect of Y253F mutation on inhibition: not affected
